Source: publication PMC7064328 (Environmental Health Perspectives, 2020)

System: embryo–placenta unit
Test: Embryo/placental growth metrics (mixed-effect models)
Format: in vivo, mouse (CD-1)
Text: From each uterus, first, viable embryos and their matched placentas were collected in succession within a horn and immediately snap frozen ( n=2–5 per litter ), and subsequent embryos were collected for growth measurements ( n=2–11 per litter ). Additional placentas were collected and placed in 4% paraformaldehyde (PFA) for histological analysis (Block 2 only). Amniotic fluid was collected by needle aspiration from litters euthanized at E11.5 and snap frozen in liquid nitrogen. Embryo livers were collected from litters euthanized at E17.5 and snap frozen in liquid nitrogen. Dam livers were weighed, a portion of the left lateral lobe was placed in 4% PFA for histology, and another portion of the same lobe was snap frozen in liquid nitrogen. A third liver section was obtained from Block 2 dams and fixed in McDowell and Trump’s fixative for electron microscopy (EM). Gross lesions were collected when observed and placed in 4% PFA for histology. Dam kidneys were removed, a cross section was prepared from the right kidney, a longitudinal section was prepared from the left kidney, and both sections were fixed in 4% PFA for histological analysis.
Gross observations were recorded at necropsy. Embryo sex was determined by polymerase chain reaction (PCR) amplification of the Sry gene (forward, 5′-[…]-3′, and reverse, 3′-[…]-5′) using a snipped portion of tissue (TransnetYX®, Inc.). Embryos and their placentas were weighed separately as wet tissue. Images of embryos were obtained on a Leica Z16 APO imaging scope, and embryo length was measured as snout-to-rump distance using FIJI ([Schindelin et al. 2012]) and Zen 2 Blue (Zeiss).
Embryo and placental metrics were analyzed using mixed-effect models and included a priori fixed effects of treatment group and litter size and a random-effects term for the dam using the lme4 package. Embryo and placental metrics included embryo weight, embryo length, placental weight, and embryo:placenta weight ratios, a meaningful predictor of fetal birth outcomes in humans ([Hayward et al. 2016]). To account for potential introduction of random effects, the study block (Block 1 or Block 2) and experimenter handling of embryo/placental tissues (Experimenter A or Experimenter B) were included as additional random effects. Models were fit in a stepwise procedure for random effects, and final models included treatment group and litter size as fixed effects using the lmerTest package ([Kuznetsova et al. 2017]). All final models included dam as a random effect but were allowed to vary in the inclusion of experimenter and experimental block random effects based on likelihood ratio test results. Point estimates and 95% CIs were determined from the final model using the Wald method. The number of individual observations for each outcome (embryo weight, placenta weight, and embryo:placenta weight ratio) and the number of litters evaluated in the mixed-effect models are shown in Table S1.

N.O=C(O)C(F)(OC(F)(F)C(F)(F)C(F)(F)F)C(F)(F)F (centres unmarked) [GenX, ammonium 2,3,3,3-tetrafluoro-2-(heptafluoropropoxy)propanoate]
Embryo length, adjusted estimate (95% CI) (E11.5, 2 mg/kg/d): 17.6 (14.7, 20.5) mm
Embryo weight, adjusted estimate (95% CI) (E11.5, 2 mg/kg/d): 49.9 (16.7, 83.1) mg
Placental weight, adjusted estimate (95% CI) (E11.5, 2 mg/kg/d): 34.0 (0.1, 67.8) mg
Embryo length, adjusted estimate (95% CI) (E11.5, 10 mg/kg/d): 17.4 (14.5, 20.3) mm
Embryo weight, adjusted estimate (95% CI) (E11.5, 10 mg/kg/d): 45.2 (12.0, 78.3) mg
Placental weight, adjusted estimate (95% CI) (E11.5, 10 mg/kg/d): 38.4 (4.5, 72.2) mg
Embryo length, adjusted estimate (95% CI) (E17.5, 2 mg/kg/d): 32.7 (28.7, 36.6) mm
Embryo weight, adjusted estimate (95% CI) (E17.5, 2 mg/kg/d): 1369.8 (1111.3, 1628.4) mg
Placental weight, adjusted estimate (95% CI) (E17.5, 2 mg/kg/d): 137.1 (105.6, 168.6) mg
Embryo length, adjusted estimate (95% CI) (E17.5, 10 mg/kg/d): 33.8 (29.8, 37.7) mm
Embryo weight, adjusted estimate (95% CI) (E17.5, 10 mg/kg/d): 1337.0 (1077.5, 1596.4) mg
Placental weight, adjusted estimate (95% CI) (E17.5, 10 mg/kg/d): 146.3 (114.7, 177.9) mg

O=C(O)C(F)(F)C(F)(F)C(F)(F)C(F)(F)C(F)(F)C(F)(F)C(F)(F)F [PFOA, Perfluorooctanoic acid]
Embryo weight decrease relative to controls (5 mg/kg/d): 9.4%
Embryo length, adjusted estimate (95% CI) (E11.5, 1 mg/kg/d): 17.5 (14.5, 20.4) mm
Embryo weight, adjusted estimate (95% CI) (E11.5, 1 mg/kg/d): 44.7 (11.1, 78.2) mg
Embryo:Placental Weight Ratio, adjusted estimate (95% CI) (E11.5, 1 mg/kg/d): 1.19 (0.62, 1.76)
Placental weight, adjusted estimate (95% CI) (E11.5, 1 mg/kg/d): 30.5 (-3.8, 64.7) mg
Embryo length, adjusted estimate (95% CI) (E11.5, 5 mg/kg/d): 18.5 (15.6, 21.4) mm
Embryo weight, adjusted estimate (95% CI) (E11.5, 5 mg/kg/d): 45.3 (11.8, 78.7) mg
Embryo:Placental Weight Ratio, adjusted estimate (95% CI) (E11.5, 5 mg/kg/d): 1.21 (0.64, 1.77)
Placental weight, adjusted estimate (95% CI) (E11.5, 5 mg/kg/d): 31.2 (-2.9, 65.3) mg
Embryo length, adjusted estimate (95% CI) (E17.5, 1 mg/kg/d): 33.6 (29.6, 37.6) mm
Embryo weight, adjusted estimate (95% CI) (E17.5, 1 mg/kg/d): 1350.7 (1091.9, 1609.4) mg
Embryo:Placental Weight Ratio, adjusted estimate (95% CI) (E17.5, 1 mg/kg/d): 11.1 (8.0, 14.3)
Placental weight, adjusted estimate (95% CI) (E17.5, 1 mg/kg/d): 129.7 (98.2, 161.2) mg
Embryo BW lower than vehicle control embryos (mixed-effect model estimate) (E17.5, 5 mg/kg/d): 129 mg
Embryo length, adjusted estimate (95% CI) (E17.5, 5 mg/kg/d): 31.2 (27.2 35.3) mm
Embryo weight, adjusted estimate (95% CI) (E17.5, 5 mg/kg/d): 1249.5 (991.0, 1508.0) mg
Embryo:Placental Weight Ratio, adjusted estimate (95% CI) (E17.5, 5 mg/kg/d): 8.5 (5.4, 11.6)
Estimated increase in placental weight relative to controls (E17.5, 5 mg/kg/d): 21 mg
Placental weight, adjusted estimate (95% CI) (E17.5, 5 mg/kg/d): 151.9 (120.5, 183.4) mg
Shift in embryo weight (E17.5, 5 mg/kg/d): -0.129 g
